According to PubChem BioAssay AID248 (DTP/NCI, 2004):
Inconclusive results and toxic doses are left out. Cut-off read from the data, not from the text of the source: active = T/C of 150% or more; inactive = T/C below 125%.

Test system: L1210 leukemia ip in BDF1 mice, survival T/C
Experiment: NCI In Vivo Anticancer Drug Screen. Data for tumor model L1210 Leukemia (intraperitoneal) in B6D2F1 (BDF1) mice
Conditions: endpoint: mean survival time, higher = longer survival
How it was run: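 Transplantable tumor model; survival measured in treated vs vehicle control mice. Value = treated/control.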

[1] = dose: 100.0 mg/kg/injection, schedule: Q04DX003 (ip), vehicle: saline
[2] = dose: 200.0 mg/kg/injection, schedule: Q04DX003 (ip), vehicle: saline
[3] = dose: 400.0 mg/kg/injection, schedule: Q04DX003 (ip), vehicle: saline
[4] = dose: 100.0 mg/kg/injection, schedule: Q01DX009 (ip), vehicle: Klucel (hydroxypropylcellulose) (HPC)
[5] = dose: 100.0 mg/kg/injection, schedule: Q01DX009 (ip), vehicle: saline
[6] = dose: 200.0 mg/kg/injection, schedule: Q01DX009 (ip), vehicle: saline
[7] = dose: 400.0 mg/kg/injection, schedule: Q01DX009 (ip), vehicle: saline

Measured: T/C

CC1(C)C=CN(c2ccc(Cl)cc2)C(=O)O1
inactive: dose: 100.0 mg/kg/injection, schedule: Q04DX002 (ip), vehicle: gum acacia 103 % of control | dose: 200.0 mg/kg/injection, schedule: Q04DX002 (ip), vehicle: gum acacia 97 % of control | dose: 400.0 mg/kg/injection, schedule: Q04DX002 (ip), vehicle: gum acacia 87 % of control

CC(C)N(C(=O)C1C2CCC(CC2)C1C(=O)N(C(C)C)C(C)C)C(C)C (stereo not given)
inactive: [1] 100 % of control | [2] 100 % of control | [3] 100 % of control

CCOC(=O)/C(C#N)=C(\C)CC(C)C
inactive: dose: 5.0 mg/kg/injection, schedule: Q01DX001 (ip), vehicle: saline 101 % of control | dose: 10.0 mg/kg/injection, schedule: Q01DX001 (ip), vehicle: saline 95 % of control | dose: 20.0 mg/kg/injection, schedule: Q01DX001 (ip), vehicle: saline 95 % of control | dose: 40.0 mg/kg/injection, schedule: Q01DX001 (ip), vehicle: saline 98 % of control | dose: 80.0 mg/kg/injection, schedule: Q01DX001 (ip), vehicle: saline 101 % of control | dose: 100.0 mg/kg/injection, schedule: Q01DX001 (ip), vehicle: saline 98 % of control

COC1/C=C/OC2(C)Oc3c(C)c(O)c4c(O)c(c(/C=N/N5C(C)CN(Cc6ccccc6)CC5C)c(O)c4c3C2=O)NC(=O)C(C)=C/C=C/C(C)C(O)C(C)C(O)C(C)C(OC(C)=O)C1C (stereo not given)
inactive: dose: 50.0 mg/kg/injection, schedule: Q01DX009 (ip), vehicle: Klucel (hydroxypropylcellulose) (HPC) 91 % of control | [4] 93 % of control

O=C1OC(c2ccc([N+](=O)[O-])cc2)=N/C1=C\c1ccc(O)cc1
inactive: [4] 96 % of control | dose: 200.0 mg/kg/injection, schedule: Q01DX009 (ip), vehicle: Klucel (hydroxypropylcellulose) (HPC) 96 % of control | dose: 400.0 mg/kg/injection, schedule: Q01DX009 (ip), vehicle: Klucel (hydroxypropylcellulose) (HPC) 90 % of control

Cc1ccc(C(=O)C[n+]2cccc3ccccc32)c(C)c1
inactive: dose: 25.0 mg/kg/injection, schedule: Q04DX002 (ip), vehicle: saline with Tween-80 93 % of control

CCOC(=O)NC(=O)CC
inactive: [5] 100 % of control | [1] 98 % of control | [6] 110 % of control | [2] 98 % of control | [7] 110 % of control | [3] 98 % of control

CCC(=O)c1ccc(OCC(O)CN2CCN(c3ccccc3Cl)CC2)cc1 (stereo not given)
inactive: dose: 100.0 mg/kg/injection, schedule: Q01DX001 (ip), vehicle: saline with Tween-80 101 % of control | dose: 100.0 mg/kg/injection, schedule: Q01DX009 (ip), vehicle: saline with Tween-80 95 % of control | dose: 200.0 mg/kg/injection, schedule: Q01DX001 (ip), vehicle: saline with Tween-80 104 % of control | dose: 200.0 mg/kg/injection, schedule: Q01DX009 (ip), vehicle: saline with Tween-80 95 % of control | dose: 400.0 mg/kg/injection, schedule: Q01DX001 (ip), vehicle: saline with Tween-80 102 % of control | dose: 400.0 mg/kg/injection, schedule: Q01DX009 (ip), vehicle: saline with Tween-80 88 % of control

Cn1c(=O)c2c(ncn2CN2CCOCC2)n(C)c1=O
inactive: dose: 75.0 mg/kg/injection, schedule: Q01DX001 (ip), vehicle: saline 100 % of control | dose: 150.0 mg/kg/injection, schedule: Q01DX001 (ip), vehicle: saline 100 % of control

CCOC(=O)/C(C#N)=C1/CCCN1
inactive: [5] 97 % of control | [6] 100 % of control | [7] 108 % of control

O=C1CN(CCl)C(=O)CN1CCl
inactive: dose: 50.0 mg/kg/injection, schedule: Q01DX009 (ip), vehicle: water 100 % of control | dose: 100.0 mg/kg/injection, schedule: Q01DX009 (ip), vehicle: water 101 % of control | dose: 100.0 mg/kg/injection, schedule: Q04DX003 (ip), vehicle: water 113 % of control | dose: 200.0 mg/kg/injection, schedule: Q04DX003 (ip), vehicle: water 110 % of control | dose: 400.0 mg/kg/injection, schedule: Q04DX003 (ip), vehicle: water 113 % of control

COS(=O)c1ccccc1C(=O)NOCc1ccccc1 (stereo not given)
inactive: dose: 50.0 mg/kg/injection, schedule: Q01DX001 (ip), vehicle: Klucel (hydroxypropylcellulose) (HPC) 103 % of control | dose: 100.0 mg/kg/injection, schedule: Q01DX001 (ip), vehicle: Klucel (hydroxypropylcellulose) (HPC) 100 % of control | dose: 200.0 mg/kg/injection, schedule: Q01DX001 (ip), vehicle: Klucel (hydroxypropylcellulose) (HPC) 107 % of control

CCOc1ccc(N=O)c(O)c1
inactive: dose: 75.0 mg/kg/injection, schedule: Q01DX001 (ip), vehicle: carboxymethylcellulose (CMC) 101 % of control | dose: 150.0 mg/kg/injection, schedule: Q01DX001 (ip), vehicle: carboxymethylcellulose (CMC) 90 % of control
